Laboratory results reported in ChEMBL document CHEMBL5058643, “Data for DCP probe BI-2081” (2022).
Each block holds one compound with its values, some of them ahead of it. The source made the active and inactive calls. The rule behind the calls is not given here.

Tests used:
[1] = target: Prostaglandin G/H synthase 2 (Homo sapiens) (UniProt P35354); assay: COX-2 Eurofins SafetyScreen44 (BI); conditions: Compound concentration 10.0 uM
[2] = target: Adenosine receptor A2a (Homo sapiens) (UniProt P29274); assay: A2A/H Eurofins SafetyScreen44 (BI); conditions: filed as antagonist, Compound concentration 10.0 uM
[3] = target: Angiotensin-converting enzyme (Homo sapiens) (UniProt P12821); assay: ACE(HU_AMTCH400) Eurofins SafetyScreen44 (BI); conditions: Compound concentration 10.0 uM
[4] = target: D(1A) dopamine receptor (Homo sapiens) (UniProt P21728); assay: D1/H Eurofins SafetyScreen44 (BI); conditions: filed as antagonist, Compound concentration 10.0 uM
[5] = target: Sodium-dependent dopamine transporter (Homo sapiens) (UniProt Q01959); assay: DATRANS/HUM Eurofins SafetyScreen44 (BI); conditions: Compound concentration 10.0 uM
[6] = target: MAO-A (amine oxidase [flavin-containing] A) (Rattus norvegicus, UniProt P21396); assay: MAO-A_ANTAG Eurofins SafetyScreen44 (BI); parameters: mode of action antagonist; scale not given: the % may be the effect or the level left; conditions: compound concentration 10 uM, read-out: % Ctrl
[7] = target: Neuronal acetylcholine receptor; alpha4/beta2 (Homo sapiens) (UniProt P17787+P43681); assay: N_NEURO_A4B2 Eurofins SafetyScreen44 (BI); assay type: protein-complex assay; conditions: filed as agonist, Compound concentration 10.0 uM
[8] = target: 3',5'-cyclic-AMP phosphodiesterase 4D (Homo sapiens) (UniProt Q08499); assay: PDE4D2 Eurofins SafetyScreen44 (BI); conditions: Compound concentration 10.0 uM
[9] = target: D(4) dopamine receptor (Homo sapiens) (UniProt P21917); conditions: Compound concentration 10.0 uM
[10] = target: Muscarinic acetylcholine receptor M4 (Homo sapiens) (UniProt P08173); conditions: Compound concentration 10.0 uM
[11] = target: T1, Free fatty acid receptor 1 (Homo sapiens, UniProt O14842); assay: FFAR1 biochemical assay
[12] = target: T1, Free fatty acid receptor 1; assay: IPOne assay
[13] = target: Gastrin/cholecystokinin type B receptor (Homo sapiens) (UniProt P32239); assay: CCKB/H Eurofins SafetyScreen44 (BI); conditions: Compound concentration 10.0 uM
[14] = target: Peroxisome proliferator-activated receptor alpha (Homo sapiens) (UniProt Q07869); assay: PPAR_ALPHA Eurofins SafetyScreen44 (BI); conditions: filed as agonist, Compound concentration 10.0 uM
[15] = target: T2, 5-hydroxytryptamine receptor 1A (Homo sapiens) (UniProt P08908); assay: 5HT1A/HU Eurofins SafetyScreen44 (BI); conditions: Compound concentration 10.0 uM
T2 sequence (whole entry): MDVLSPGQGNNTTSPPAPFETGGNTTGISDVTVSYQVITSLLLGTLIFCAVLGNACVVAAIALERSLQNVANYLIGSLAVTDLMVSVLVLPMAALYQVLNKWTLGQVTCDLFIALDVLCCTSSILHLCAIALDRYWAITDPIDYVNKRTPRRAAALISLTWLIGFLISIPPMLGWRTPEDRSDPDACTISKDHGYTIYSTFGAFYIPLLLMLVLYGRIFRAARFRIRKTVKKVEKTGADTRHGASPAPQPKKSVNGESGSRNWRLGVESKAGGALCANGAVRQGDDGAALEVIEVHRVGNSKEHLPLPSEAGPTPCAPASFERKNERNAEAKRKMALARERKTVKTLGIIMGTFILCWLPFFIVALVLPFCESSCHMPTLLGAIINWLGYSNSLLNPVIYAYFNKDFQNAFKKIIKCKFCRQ

[16] = target: Sodium-dependent serotonin transporter (Homo sapiens) (UniProt P31645); assay: 5HTTRANS/HU Eurofins SafetyScreen44 (BI); conditions: Compound concentration 10.0 uM
[17] = target: Adenosine receptor A2a (Homo sapiens) (UniProt P29274); assay: A2A/HU Eurofins SafetyScreen44 (BI); conditions: Compound concentration 10.0 uM
[18] = target: T3, Alpha-1D adrenergic receptor (Homo sapiens) (UniProt P25100); assay: ALPHA1D/H Eurofins SafetyScreen44 (BI); conditions: Compound concentration 10.0 uM
T3 sequence (whole entry): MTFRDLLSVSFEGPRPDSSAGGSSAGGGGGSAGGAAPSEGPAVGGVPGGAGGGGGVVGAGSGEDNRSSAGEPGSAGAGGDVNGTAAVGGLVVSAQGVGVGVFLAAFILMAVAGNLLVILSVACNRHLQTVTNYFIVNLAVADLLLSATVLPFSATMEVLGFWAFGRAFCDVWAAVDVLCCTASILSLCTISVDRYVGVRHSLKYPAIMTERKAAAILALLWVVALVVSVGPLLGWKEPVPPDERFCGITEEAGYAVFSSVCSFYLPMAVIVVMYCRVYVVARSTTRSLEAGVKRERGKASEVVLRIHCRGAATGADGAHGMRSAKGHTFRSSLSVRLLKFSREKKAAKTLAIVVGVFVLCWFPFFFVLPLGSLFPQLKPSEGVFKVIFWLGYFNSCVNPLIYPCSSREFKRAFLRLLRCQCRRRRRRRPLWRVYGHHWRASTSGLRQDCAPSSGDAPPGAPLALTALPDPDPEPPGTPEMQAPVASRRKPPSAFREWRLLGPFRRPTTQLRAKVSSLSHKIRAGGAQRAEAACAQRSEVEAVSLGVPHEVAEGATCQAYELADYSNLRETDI

[19] = target: B2 bradykinin receptor (Homo sapiens) (UniProt P30411); assay: B2/H Eurofins SafetyScreen44 (BI); conditions: filed as antagonist, Compound concentration 10.0 uM
[20] = target: Voltage-dependent N-type calcium channel subunit alpha-1B (Rattus norvegicus) (UniProt Q02294); assay: CA+/N/RA Eurofins SafetyScreen44 (BI); conditions: Compound concentration 10.0 uM
[21] = target: Cysteinyl leukotriene receptor 1 (Homo sapiens) (UniProt Q9Y271); assay: CYSLT1_HS Eurofins SafetyScreen44 (BI); conditions: Compound concentration 10.0 uM
[22] = target: Interleukin-1 beta (Mus musculus) (UniProt P10749); assay: IL-1 Eurofins SafetyScreen44 (BI); conditions: Compound concentration 10.0 uM
[23] = target: T4, Muscarinic acetylcholine receptor M1 (Homo sapiens) (UniProt P11229); assay: M1/HU Eurofins SafetyScreen44 (BI); conditions: Compound concentration 10.0 uM
T4 sequence (whole entry): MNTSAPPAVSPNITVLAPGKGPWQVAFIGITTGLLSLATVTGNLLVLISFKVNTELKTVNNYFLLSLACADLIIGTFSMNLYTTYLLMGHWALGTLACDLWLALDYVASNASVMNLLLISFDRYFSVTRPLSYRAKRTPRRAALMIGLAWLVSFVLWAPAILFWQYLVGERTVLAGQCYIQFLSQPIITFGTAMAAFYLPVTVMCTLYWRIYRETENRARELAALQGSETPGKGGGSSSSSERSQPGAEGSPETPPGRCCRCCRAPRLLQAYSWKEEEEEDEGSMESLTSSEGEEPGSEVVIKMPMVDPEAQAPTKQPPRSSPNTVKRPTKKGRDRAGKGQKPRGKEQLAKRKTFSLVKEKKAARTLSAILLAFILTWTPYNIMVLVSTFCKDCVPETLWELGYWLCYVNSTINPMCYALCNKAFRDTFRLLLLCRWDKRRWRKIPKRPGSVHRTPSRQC

[24] = target: P2X purinoceptor (Oryctolagus cuniculus) (UniProt G1U3D6); assay: P2X/RB Eurofins SafetyScreen44 (BI); conditions: Compound concentration 10.0 uM
[25] = target: Protein kinase C alpha type (Mus musculus) (UniProt P20444); assay: PHORBOLE/M Eurofins SafetyScreen44 (BI); conditions: Compound concentration 10.0 uM
[26] = target: Neuropeptide Y receptor type 1 (Homo sapiens) (UniProt P25929); assay: Y1/HU Eurofins SafetyScreen44 (BI); conditions: Compound concentration 10.0 uM

T1 sequence (O14842 whole entry): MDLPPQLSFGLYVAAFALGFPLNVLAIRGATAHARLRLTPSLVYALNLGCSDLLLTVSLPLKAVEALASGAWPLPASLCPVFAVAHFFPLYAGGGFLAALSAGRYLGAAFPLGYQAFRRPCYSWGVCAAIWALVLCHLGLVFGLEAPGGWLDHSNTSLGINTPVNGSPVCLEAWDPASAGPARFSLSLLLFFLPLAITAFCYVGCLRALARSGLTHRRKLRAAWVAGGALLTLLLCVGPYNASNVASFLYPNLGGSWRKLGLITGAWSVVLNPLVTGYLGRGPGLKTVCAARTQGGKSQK
Chain of Adenosine receptor A2a (Homo sapiens) (P29274 whole entry): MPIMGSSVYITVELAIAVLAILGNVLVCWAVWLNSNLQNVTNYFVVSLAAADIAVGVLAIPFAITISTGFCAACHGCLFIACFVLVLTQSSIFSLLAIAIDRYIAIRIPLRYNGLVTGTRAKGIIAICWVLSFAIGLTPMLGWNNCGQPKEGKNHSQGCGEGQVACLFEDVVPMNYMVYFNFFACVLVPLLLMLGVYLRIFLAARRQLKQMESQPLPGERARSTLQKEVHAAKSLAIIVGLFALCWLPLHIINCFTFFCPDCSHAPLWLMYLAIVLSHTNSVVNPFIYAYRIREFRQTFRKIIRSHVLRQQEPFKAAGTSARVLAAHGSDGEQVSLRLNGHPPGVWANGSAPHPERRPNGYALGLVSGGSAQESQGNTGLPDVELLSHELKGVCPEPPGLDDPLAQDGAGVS
Chain of Muscarinic acetylcholine receptor M4 (Homo sapiens) (P08173 whole entry): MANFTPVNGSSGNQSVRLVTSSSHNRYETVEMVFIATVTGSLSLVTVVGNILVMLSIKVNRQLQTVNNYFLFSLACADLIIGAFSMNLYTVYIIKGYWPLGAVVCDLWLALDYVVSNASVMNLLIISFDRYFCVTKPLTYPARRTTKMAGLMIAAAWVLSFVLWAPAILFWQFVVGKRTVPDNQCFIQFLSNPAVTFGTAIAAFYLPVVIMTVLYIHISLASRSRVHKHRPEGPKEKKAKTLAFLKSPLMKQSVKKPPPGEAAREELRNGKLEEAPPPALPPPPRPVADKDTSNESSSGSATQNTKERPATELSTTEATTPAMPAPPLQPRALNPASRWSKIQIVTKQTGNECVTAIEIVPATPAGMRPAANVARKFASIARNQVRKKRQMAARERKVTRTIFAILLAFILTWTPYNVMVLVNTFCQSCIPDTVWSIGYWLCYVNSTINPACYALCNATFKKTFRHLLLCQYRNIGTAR
Chain of D(4) dopamine receptor (Homo sapiens) (P21917 whole entry): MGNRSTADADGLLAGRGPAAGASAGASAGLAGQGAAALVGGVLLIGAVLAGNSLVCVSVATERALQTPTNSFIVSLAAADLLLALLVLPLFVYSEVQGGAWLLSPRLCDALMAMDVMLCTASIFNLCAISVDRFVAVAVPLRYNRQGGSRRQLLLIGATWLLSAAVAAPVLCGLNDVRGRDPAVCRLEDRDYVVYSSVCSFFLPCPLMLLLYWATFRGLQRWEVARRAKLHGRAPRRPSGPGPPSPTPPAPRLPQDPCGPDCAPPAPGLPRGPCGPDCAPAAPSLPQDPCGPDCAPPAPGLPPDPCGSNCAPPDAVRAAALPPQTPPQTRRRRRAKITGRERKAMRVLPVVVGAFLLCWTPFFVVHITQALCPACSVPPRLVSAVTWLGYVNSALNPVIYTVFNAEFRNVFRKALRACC
Chain of 3',5'-cyclic-AMP phosphodiesterase 4D (Homo sapiens) (Q08499 whole entry): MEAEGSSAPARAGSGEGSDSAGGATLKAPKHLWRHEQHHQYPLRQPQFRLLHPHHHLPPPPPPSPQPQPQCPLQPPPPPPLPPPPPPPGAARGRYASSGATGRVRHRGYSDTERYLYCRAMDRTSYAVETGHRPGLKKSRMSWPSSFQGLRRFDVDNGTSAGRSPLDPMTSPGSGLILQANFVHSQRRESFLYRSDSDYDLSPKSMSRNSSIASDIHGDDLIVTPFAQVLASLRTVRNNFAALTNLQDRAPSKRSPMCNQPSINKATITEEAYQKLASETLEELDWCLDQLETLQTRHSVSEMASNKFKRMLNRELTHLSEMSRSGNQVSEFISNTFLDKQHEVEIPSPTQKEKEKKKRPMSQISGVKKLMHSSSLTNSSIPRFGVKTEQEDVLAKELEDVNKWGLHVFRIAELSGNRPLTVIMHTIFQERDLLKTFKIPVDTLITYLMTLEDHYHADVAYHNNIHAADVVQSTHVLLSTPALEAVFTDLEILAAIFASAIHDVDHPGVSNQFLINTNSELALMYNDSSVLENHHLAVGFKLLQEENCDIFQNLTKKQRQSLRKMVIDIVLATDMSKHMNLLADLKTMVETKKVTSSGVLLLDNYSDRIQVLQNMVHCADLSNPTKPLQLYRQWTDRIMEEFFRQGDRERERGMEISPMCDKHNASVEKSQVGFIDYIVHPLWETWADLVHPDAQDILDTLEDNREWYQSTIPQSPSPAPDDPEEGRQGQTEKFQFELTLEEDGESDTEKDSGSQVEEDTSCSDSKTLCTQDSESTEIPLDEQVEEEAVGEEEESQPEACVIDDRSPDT
Chain of P2X purinoceptor (Oryctolagus cuniculus) (G1U3D6 as listed by the source): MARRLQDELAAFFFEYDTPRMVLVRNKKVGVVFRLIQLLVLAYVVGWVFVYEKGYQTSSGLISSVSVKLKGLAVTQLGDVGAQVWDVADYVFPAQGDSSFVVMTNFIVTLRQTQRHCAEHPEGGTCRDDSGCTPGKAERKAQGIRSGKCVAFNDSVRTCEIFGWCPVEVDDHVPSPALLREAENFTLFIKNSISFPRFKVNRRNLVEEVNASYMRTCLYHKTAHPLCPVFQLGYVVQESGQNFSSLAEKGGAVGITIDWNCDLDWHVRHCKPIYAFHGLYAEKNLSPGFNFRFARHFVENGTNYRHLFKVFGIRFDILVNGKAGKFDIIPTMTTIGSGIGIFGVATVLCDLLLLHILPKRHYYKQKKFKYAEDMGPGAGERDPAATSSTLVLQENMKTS
Chain of Interleukin-1 beta (Mus musculus) (P10749 118-269 limits assumed): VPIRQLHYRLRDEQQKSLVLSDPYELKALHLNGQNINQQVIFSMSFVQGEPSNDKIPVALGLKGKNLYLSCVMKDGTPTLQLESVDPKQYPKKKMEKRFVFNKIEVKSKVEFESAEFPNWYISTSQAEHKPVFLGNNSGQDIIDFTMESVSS
Chain of Gastrin/cholecystokinin type B receptor (Homo sapiens) (P32239 whole entry): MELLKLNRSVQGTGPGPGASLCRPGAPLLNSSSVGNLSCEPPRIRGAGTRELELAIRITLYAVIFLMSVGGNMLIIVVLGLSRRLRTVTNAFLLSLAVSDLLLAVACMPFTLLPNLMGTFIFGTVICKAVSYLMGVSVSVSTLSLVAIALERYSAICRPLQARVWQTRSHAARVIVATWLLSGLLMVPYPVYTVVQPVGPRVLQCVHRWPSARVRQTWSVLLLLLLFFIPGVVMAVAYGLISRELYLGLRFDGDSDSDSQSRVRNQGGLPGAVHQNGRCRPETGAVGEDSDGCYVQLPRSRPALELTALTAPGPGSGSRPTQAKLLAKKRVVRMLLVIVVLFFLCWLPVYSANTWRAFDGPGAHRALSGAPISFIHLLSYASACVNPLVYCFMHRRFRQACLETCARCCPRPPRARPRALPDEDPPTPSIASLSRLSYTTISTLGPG
Chain of MAO-A (amine oxidase [flavin-containing] A) (P21396 whole entry): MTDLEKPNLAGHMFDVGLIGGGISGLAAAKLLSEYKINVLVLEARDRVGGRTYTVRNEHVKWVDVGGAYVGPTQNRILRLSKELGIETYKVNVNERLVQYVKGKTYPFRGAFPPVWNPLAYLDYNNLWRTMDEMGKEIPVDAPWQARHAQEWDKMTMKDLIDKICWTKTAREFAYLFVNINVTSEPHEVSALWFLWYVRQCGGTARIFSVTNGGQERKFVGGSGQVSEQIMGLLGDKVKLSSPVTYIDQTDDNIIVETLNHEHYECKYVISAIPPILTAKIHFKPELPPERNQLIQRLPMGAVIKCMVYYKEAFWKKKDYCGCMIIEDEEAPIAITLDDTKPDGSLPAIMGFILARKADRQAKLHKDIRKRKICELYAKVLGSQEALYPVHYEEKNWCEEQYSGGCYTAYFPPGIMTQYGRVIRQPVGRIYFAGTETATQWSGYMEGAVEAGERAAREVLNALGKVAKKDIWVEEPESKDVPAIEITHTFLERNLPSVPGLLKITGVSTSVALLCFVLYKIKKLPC
Chain of Cysteinyl leukotriene receptor 1 (Homo sapiens) (Q9Y271 whole entry): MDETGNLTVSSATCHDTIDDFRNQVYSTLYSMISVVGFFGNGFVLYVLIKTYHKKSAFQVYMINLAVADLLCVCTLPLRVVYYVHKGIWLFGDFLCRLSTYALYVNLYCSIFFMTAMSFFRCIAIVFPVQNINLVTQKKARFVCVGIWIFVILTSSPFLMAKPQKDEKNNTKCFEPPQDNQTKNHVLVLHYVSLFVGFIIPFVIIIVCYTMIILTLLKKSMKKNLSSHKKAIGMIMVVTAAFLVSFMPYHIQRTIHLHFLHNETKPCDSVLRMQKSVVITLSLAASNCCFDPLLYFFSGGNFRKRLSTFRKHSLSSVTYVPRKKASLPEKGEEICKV
Chain of Peroxisome proliferator-activated receptor alpha (Homo sapiens) (Q07869 whole entry): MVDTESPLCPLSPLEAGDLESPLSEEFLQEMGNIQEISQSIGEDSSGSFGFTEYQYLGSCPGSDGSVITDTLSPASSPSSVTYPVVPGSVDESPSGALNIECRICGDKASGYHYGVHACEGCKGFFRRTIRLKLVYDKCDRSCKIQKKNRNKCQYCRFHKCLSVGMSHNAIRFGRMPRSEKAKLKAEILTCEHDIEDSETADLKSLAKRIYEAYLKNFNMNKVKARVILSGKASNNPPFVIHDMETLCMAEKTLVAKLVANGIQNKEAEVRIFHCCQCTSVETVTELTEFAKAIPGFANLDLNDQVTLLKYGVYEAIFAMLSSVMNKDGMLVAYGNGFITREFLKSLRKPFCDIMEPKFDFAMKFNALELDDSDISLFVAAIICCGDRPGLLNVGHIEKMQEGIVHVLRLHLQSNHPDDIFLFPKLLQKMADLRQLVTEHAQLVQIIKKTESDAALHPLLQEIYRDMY

inhibition [9]: 12.9%
inhibition [10]: -8.43%
Structure (SMILES): COCCCS(=O)(=O)c1cc(C)c(-c2ccc(F)c3c2CC[C@H]3Oc2ccc3c(c2)OC[C@H]3CC(=O)O)c(C)c1
residual activity [1]: 81%
residual activity [2]: 102%
residual activity [3]: 99%
residual activity [4]: 87%
residual activity [5]: 84%
activity at 10 µM [6]: 94% (not active)
residual activity [7]: 112%
residual activity [8]: 103%

Ki [11]: 23 nM (active)
EC50 [12]: 3 nM (active)
Structure (SMILES): Cc1cc(OCCC(C)(C)O)cc(C)c1-c1ccc(F)c2c1CC[C@H]2Oc1ccc2c(c1)OC[C@H]2CC(=O)O
residual activity [13]: 96%
residual activity [14]: 119%
residual activity [15]: 118%
residual activity [16]: 106%
residual activity [17]: 125%
residual activity [18]: 85%
residual activity [19]: 103%
residual activity [20]: 113%
residual activity [21]: 31%
residual activity [22]: 100%
residual activity [23]: 83%
residual activity [24]: 122%
residual activity [25]: 84%
residual activity [26]: 108%
